Results: article PMC5646861 (PLoS ONE, 2017)

How the values were obtained:
[1] = target: T1, SMO-1 (Caenorhabditis elegans, UniProt P55853); test: NMR titration (15N-HSQC chemical shift perturbation) of SMO-1 with SIM peptides; assay type: binding; set-up: inferred from pET15b vector with NdeI/BamHI and Ni-NTA purification) (N); made in house; host or cells: E. coli BL21(DE3)
[2] = target: T1, SMO-1; test: In vitro SMO-1 conjugation assay with FITC-labelled synthetic peptide substrate (human Aos1/Uba2 E1, human Ubc9 E2); assay type: biochemical, C. elegans; set-up: inferred from pET15b vector with NdeI/BamHI and Ni-NTA purification) (N); made in house; conditions: 10mM of peptide, 50 μM SMO-1 or SUMO1, 1 μM E1, 2.5 μM E2, 1 mM ATP, 4°C, 12 hours, 20 mM Tris-Cl pH 8.5, 250 mM NaCl, 5 mM MgCl2, 0.1% v/v Tween 20; SDS-PAGE, FITC fluorescence 519 nm
Procedure: A synthetic peptide, sequence–[…] with Fluorescein iso-thiocyanate (FITC) label at the N-terminus was used as substrate. […] Reaction was carried out at 4°C for 12 hours. The reaction was started by adding 1 mM ATP. Reaction buffer contained 20 mM Tris-Cl pH 8.5, 250 mM NaCl, 5 mM MgCl2, 0.1% v/v Tween 20. […] Reaction buffer was the same as above. The reaction was carried out at 37°C for 4 hours. All reactions were stopped by adding reducing SDS loading dye. Reaction samples were run on 12% w/v SDS PAGE and analysed by probing FITC fluorescence at 519 nm wavelength (excitation wavelength– 495 nm).
To assess the ability of SMO-1 to be conjugated and deconjugated to substrates we developed an in vitro assay. […] As a substrate we used a synthetic peptide harbouring two consensus SUMOylation sites found in the IE2 protein (Fig 6A). To facilitate detection of SUMOylated peptide on SDS-PAGE gels we labelled the peptide with Fluorescein iso-thiocyanate (FITC) fluorophore. […] To verify, we carried out an in-vitro reaction with FITC tagged SMO-1.
(A) Sequence of FITC fluorophore labelled peptide used as substrate in in vitro SUMOylation assays. The lysines competent for SUMOylation are in bigger font and in bold face. All subsequent images were obtained by observing FITC fluorescence at 519 nm unless otherwise mentioned. […] The SDS-PAGE gel is imaged by observing YFP fluorescence. […]
Target sequence in this assay (P55853 1-90): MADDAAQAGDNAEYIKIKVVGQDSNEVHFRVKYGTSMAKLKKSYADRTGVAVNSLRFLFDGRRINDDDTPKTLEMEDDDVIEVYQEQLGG
Target sequence in this assay (P63279 whole entry, further chain): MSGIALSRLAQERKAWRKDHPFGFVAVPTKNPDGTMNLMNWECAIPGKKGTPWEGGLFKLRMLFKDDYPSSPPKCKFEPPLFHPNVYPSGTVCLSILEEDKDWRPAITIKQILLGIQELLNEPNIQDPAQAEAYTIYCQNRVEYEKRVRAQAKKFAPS

[3] = system: substrate-polySMO-1 conjugates; test: In vitro SMO-1 deconjugation assay with SENP2 on SMO-1 chains from the peptide; assay type: biochemical; conditions: 10μM SENP2 (human), same reaction mix as conjugation, 25°C, 2–3 hours; SDS-PAGE, FITC fluorescence
Procedure: (§1) Deconjugation Assays were performed by adding 10μM SENP2 to poly-SUMO1/2 and poly-SMO-1 chains in the same reaction mix used for conjugation. Deconjugation reaction was carried out at 25°C for 2–3 hours. Reactions were stopped by adding reducing SDS loading dye. Reaction samples were run on 12% w/v SDS PAGE and analysed by probing FITC fluorescence at 519 nm wavelength (excitation wavelength– 495 nm). SMO-1-YFP was checked for deconjugation in 50mM Tris-Cl pH 7.5 @ 25°C, 150mM NaCl, 1mM DTT reaction buffer. SENP2 was mixed with SMO-1-YFP and incubated at temperatures from 25–37°C for 6 hours. The reaction mix were then run separately on two SDS-PAGE gels for imaging using fluorescence and for staining with Coomassie Brilliant Blue R-250 Dye.
(§2) DeSUMOylation enzymes can cleave SUMO chains, making the process reversible to enable another level of control over the SUMOylation process.

[4] = system: SMO-1-YFP; test: De-conjugation (maturation) assay of SMO-1-YFP with SENP2; assay type: biochemical, C. elegans; conditions: 50mM Tris-Cl pH 7.5 @ 25°C, 150mM NaCl, 1mM DTT; 25–37°C, 6 hours; SDS-PAGE, YFP fluorescence and Coomassie
Procedure: as §1, §2

CC[C@H](C)[C@H](NC(=O)[C@H](CS)NC(=O)CNC(=O)[C@H](C)NC(=O)[C@@H](NC(=O)[C@@H](N)CC(=O)O)[C@@H](C)O)C(=O)N[C@H](C(=O)N[C@H](C(=O)N[C@@H](CO)C(=O)N[C@@H](CC(=O)O)C(=O)N[C@@H](CO)C(=O)N[C@@H](CCC(=O)O)C(=O)N[C@@H](CCC(=O)O)C(=O)N[C@@H](CCC(=O)O)C(=O)N[C@@H](CCC(N)=O)C(=O)NCC(=O)N[C@@H](CCC(=O)O)C(=O)N[C@@H](CCC(=O)O)C(=O)N[C@@H](Cc1c[nH]c2ccccc12)C(=O)O)[C@@H](C)CC)C(C)C [IE2-SIM]
Kd [1]: 108 µM

PLIKQEDIKPEPDFTIQYRNKIIDTAGCIVISDSEEE [synthetic peptide, synthetic peptide harbouring two consensus SUMOylation sites found in the IE2 protein]
SMO-1 conjugation on the substrate [2]: Rapid SMO-1 conjugation was observed on the substrate

B1: SENP2: human deSUMOylation enzyme (protein, UniProt Q9HC62 1-589, looked up)
Sentrin-specific protease 2: MYRWLVRILGTIFRFCDRSVPPARALLKRRRSDSTLFSTVDTDEIPAKRPRLDCFIHQVKNSLYNAASLFGFPFQLTTKPMVTSACNGTRNVAPSGEVFSNSSSCELTGSGSWNNMLKLGNKSPNGISDYPKIRVTVTRDQPRRVLPSFGFTLNSEGCNRRPGGRRHSKGNPESSLMWKPQEQAVTEMISEESGKGLRRPHCTVEEGVQKEEREKYRKLLERLKESGHGNSVCPVTSNYHSSQRSQMDTLKTKGWGEEQNHGVKTTQFVPKQYRLVETRGPLCSLRSEKRCSKGKITDTETMVGIRFENESRRGYQLEPDLSEEVSARLRLGSGSNGLLRRKVSIIETKEKNCSGKERDRRTDDLLELTEDMEKEISNALGHGPQDEILSSAFKLRITRGDIQTLKNYHWLNDEVINFYMNLLVERNKKQGYPALHVFSTFFYPKLKSGGYQAVKRWTKGVNLFEQEIILVPIHRKVHWSLVVIDLRKKCLKYLDSMGQKGHRICEILLQYLQDESKTKRNSDLNLLEWTHHSMKPHEIPQQLNGSDCGMFTCKYADYISRDKPITFTQHQMPLFRKKMVWEILHQQLL
cleavage of SMO-1 chains from peptide by SENP2 [3]: could efficiently edit the SMO-1 chains from the peptide | cleavage of SMO-1 from SMO-1-YFP by SENP2 [4]: could cleave SMO-1 from SMO-1-YFP
